# Assay results: patent publication US20230098254A1, “SCUTELLARIAE RADIX COMPOUNDS AND USE THEREOF FOR INHIBITING OXIDATIVE PHOSPHORYLATION PATHWAY OF MITOCHONDRIA” (priority 2020, published 2023)
# Read-outs that look alike come from different tables or passages of the source.
# Tests used:
# [1] = tested on: oxidative phosphorylation pathway of mitochondria; assay: Cellular oxygen consumption (OCR), XFe metabolic analysis system; type: cell-based; conditions: NCI-H82 cell; 118.2 μM; within half an hour; FIG. 1
# Description: The oxygen required by cell was mainly consumed in the mitochondria respiratory chain, so the measurement of cellular oxygen consumption (OCR, oxygen consumption rate) could directly reflect the activity of the oxidative phosphorylation pathway of mitochondria. In this experiment, the XFe metabolic analysis system was used to measure the oxygen consumption of NCI-H82 cell in the presence or absence of Compound SJ2858 (baicalein) and Compound SJ2775 (baicalin).
# Rotenone (abbreviated as RO, 0.5 μM) is a known inhibitor of mitochondria oxidative phosphorylation pathway complex I, Antimycin A (abbreviated as AA, 0.5 μM) is a known inhibitor of mitochondria oxidative phosphorylation pathway complex III. Compound SJ2858, 73.2 μM; Compound SJ2775, 118.2 μM.
# Daoy cell [2] = assay: Cell viability, Promega CellTiter-Glo, Daoy cell; type: cell-based, human; conditions: read-out: IC50 of cell viability inhibition
# Description: (§1) Cell viability was detected by using the Promega CellTiter-Glo kit, the kit reflected cell viability by directly measuring intracellular ATP content. […] Daoy cell and NCI-H82 cell were cultured in DMEM containing 10% FBS (plus p/s).
# NCI-H82 cell [3] = assay: Cell viability, Promega CellTiter-Glo, NCI-H82 cell; type: cell-based; conditions: NCI-H82 cell without CSA (inactive mPTP); read-out: IC50 of cell viability inhibition
# Description: as §1
# Daoy cell [4] = assay: Mitochondria membrane potential difference by TMRM, Daoy cell; type: cell-based, human
# From the text: (§2) For cells with active mitochondria permeability transition pore, adding peroxide (such as H2O2) could increase the activity of mitochondria permeability transition pore, resulting in a decrease in mitochondria membrane potential.
# (§3) The mitochondria membrane potential difference was detected by Tetramethylrhodamine (TMRM), the high fluorescence intensity of TMRM represented the high membrane potential difference.
# NCI-H82 cell [5] = assay: Mitochondria membrane potential difference by TMRM, NCI-H82 cell; type: cell-based
# From the text: as §2, §3
Structure (SMILES),Inhibition of oxygen consumption (in words) [1],IC50 (Daoy cell [2]; Daoy cell with CSA (1.5 μM mPTP inhibitor)) [µM],IC50 (Daoy cell [2]; Daoy cell without CSA (active mPTP)) [µM],IC50 (NCI-H82 cell [3]) [µM],Effect on membrane potential (in words) (Daoy cell [4]),"Relative TMRM signal intensity (%), mean value (Daoy cell [4]; H2O2 +, CsA −) [%]",Effect on membrane potential (in words) (NCI-H82 cell [5]),"Relative TMRM signal intensity (%), mean value (NCI-H82 cell [5]; H2O2 +, CsA −) [%]"
"O=C(O)[C@H]1O[C@@H](Oc2cc3oc(-c4ccccc4)cc(=O)c3c(O)c2O)[C@H](O)[C@@H](O)[C@@H]1O [Compound SJ2775, baicalin]",significantly inhibit,45.4,> 100,38.6,,,,
"OO [Compound H2O2, H2O2]",,,,,down-regulated,82,not affected,119
